From patent US9926324B2, “Heteroaromatic compounds as PI3 kinase modulators and methods of use” (Calitor Sciences, LLC, priority 2012, dated 2018)

How the values were obtained:
[1] = Compound stability in human liver microsomes; type: in vitro ADME; conditions: for half-life at 5 μM / CLint scaled at 5 μM: pH 7.4; for half-life at 5 μM / Human T1/2: human liver microsomes 0.5 mg protein/mL, compound 5 μM, NADPH 1.0 mM, 37° C.; for half-life at 5 μM: read-out: Human T1/2; for CLint scaled at 5 μM: human liver microsomes, in vivo CLint extrapolated
Description: (§1) Human or rat liver microsomes incubations were conducted in duplicate in polypropylene tubes. The typical incubation mixtures consisted of human or rat liver microsomes (0.5 mg protein/mL), compounds of interest (5 μM) and NADPH (1.0 mM) in a total volume of 200 μL potassium phosphate buffer (PBS, 100 mM, pH=7.4). Compounds were dissolved in DMSO and diluted with PBS such that the final concentration of DMSO was 0.05%. The enzymatic reactions were commenced with the addition of […] after a 3-min preincubation and incubated in a water bath open to the air at 37° C. Reactions were terminated at various time points (0, 5, 10, 15, 30, 60 min) by adding equal volume of ice-cold acetonitrile. The samples were stored at −80° C. until LC/MS/MS assays.
(§2) The concentrations of compounds in the incubation mixtures of human or rat liver microsomes were determined by a LC/MS/MS method. The ranges of the linearity in the concentration range were determined for each tested compounds.
(§3) A parallel incubation was performed using denatured microsomes as the negative control, and reactions were terminated at various time points (0, 15, 60 min) after incubation at 37° C.
(§4) Dextromethorphan (70 μM) was selected as the positive control, and reactions were terminated at various time points (0, 5, 10, 15, 30, 60 min) after incubation at 37° C. Both positive and negative control samples were included in each assay to ensure the integrity of the microsomal incubation system.
(§5) The concentrations of compounds in human or rat liver microsome incubations were plotted as a percentage of the relevant zero time point control for each reaction. The in vivo CLint were extrapolated (ref: Naritomi Y, Terashita S, Kimura S, Suzuki A, Kagayama A, Sugiyama Y. Prediction of human hepatic clearance from in vivo animal experiments and in vitro metabolic studies with liver microsomes from animals and humans. Drug Metabolism and Disposition 2001, 29: 1316-1324).

[2] = Compound stability in rat liver microsomes; type: in vitro ADME; conditions: for half-life at 5 μM / CLint scaled at 5 μM: pH 7.4; for half-life at 5 μM / Rat T1/2: rat liver microsomes 0.5 mg protein/mL, compound 5 μM, NADPH 1.0 mM, 37° C.; for half-life at 5 μM: read-out: Rat T1/2; for CLint scaled at 5 μM: rat liver microsomes, in vivo CLint extrapolated
Description: as §1, §2, §3, §4, §5

[3] = target: T1, PI3K p110β/p85α (h) (Homo sapiens, UniProt P42338); experiment: PI3K p110β/p85α (h) non-radioactive HTRF assay; type: biochemical
T1 construct: purchased Millipore UK Ltd (assay service)
T1 sequence (P42338 whole entry): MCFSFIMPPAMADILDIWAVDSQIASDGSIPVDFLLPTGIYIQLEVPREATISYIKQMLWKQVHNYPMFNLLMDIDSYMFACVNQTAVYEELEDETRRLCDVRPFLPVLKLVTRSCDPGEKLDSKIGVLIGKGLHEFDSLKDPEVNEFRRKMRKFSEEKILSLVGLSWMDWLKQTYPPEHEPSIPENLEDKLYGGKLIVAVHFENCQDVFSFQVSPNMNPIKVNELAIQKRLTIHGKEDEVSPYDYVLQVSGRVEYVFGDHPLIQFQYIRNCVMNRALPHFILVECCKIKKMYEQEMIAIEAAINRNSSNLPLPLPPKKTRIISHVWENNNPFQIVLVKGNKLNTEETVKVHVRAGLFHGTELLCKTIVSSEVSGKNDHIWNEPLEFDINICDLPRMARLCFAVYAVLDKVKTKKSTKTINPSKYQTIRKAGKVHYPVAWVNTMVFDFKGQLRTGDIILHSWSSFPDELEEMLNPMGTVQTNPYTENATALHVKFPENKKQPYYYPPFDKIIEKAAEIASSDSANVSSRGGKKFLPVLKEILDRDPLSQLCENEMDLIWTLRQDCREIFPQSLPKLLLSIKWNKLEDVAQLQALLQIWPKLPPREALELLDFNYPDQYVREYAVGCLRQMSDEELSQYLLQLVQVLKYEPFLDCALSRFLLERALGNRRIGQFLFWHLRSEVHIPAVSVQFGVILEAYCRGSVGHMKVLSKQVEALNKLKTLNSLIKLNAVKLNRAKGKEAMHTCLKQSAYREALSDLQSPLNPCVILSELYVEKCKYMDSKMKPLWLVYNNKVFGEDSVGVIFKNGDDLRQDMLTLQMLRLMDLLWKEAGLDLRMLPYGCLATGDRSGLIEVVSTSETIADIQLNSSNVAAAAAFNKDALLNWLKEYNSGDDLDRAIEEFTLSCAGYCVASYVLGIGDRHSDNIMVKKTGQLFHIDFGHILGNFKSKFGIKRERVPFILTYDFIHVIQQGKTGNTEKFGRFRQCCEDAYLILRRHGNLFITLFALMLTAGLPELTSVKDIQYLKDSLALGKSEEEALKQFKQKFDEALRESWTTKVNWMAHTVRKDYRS
T1 sequence (P27986 whole entry partner): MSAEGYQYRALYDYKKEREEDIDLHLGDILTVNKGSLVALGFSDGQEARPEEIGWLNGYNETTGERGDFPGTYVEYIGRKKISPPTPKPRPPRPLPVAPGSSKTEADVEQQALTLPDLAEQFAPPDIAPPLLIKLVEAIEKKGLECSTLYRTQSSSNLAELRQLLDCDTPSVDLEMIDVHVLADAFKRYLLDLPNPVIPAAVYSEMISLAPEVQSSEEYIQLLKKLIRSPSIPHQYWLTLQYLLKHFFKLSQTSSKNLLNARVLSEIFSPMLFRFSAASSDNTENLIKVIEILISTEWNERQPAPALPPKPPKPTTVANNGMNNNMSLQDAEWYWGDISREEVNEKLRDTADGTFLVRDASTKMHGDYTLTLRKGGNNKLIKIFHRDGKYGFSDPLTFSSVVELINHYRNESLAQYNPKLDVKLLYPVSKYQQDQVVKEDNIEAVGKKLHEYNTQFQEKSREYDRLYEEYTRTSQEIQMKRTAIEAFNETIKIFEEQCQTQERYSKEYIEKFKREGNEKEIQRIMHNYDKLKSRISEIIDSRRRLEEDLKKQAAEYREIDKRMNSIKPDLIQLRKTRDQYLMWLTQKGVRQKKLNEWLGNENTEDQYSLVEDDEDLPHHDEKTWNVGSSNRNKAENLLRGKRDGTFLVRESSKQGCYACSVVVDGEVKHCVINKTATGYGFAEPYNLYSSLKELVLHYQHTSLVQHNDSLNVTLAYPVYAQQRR
Description: (§6) PI3K (p110β/p85α) (h) is incubated in assay buffer containing 10 μM phosphatidylinositol-4,5-bisphosphate and MgATP (concentration as required). The reaction is initiated by the addition of the MgATP mix. After incubation for 30 minutes at room temperature, the reaction is stopped by the addition of stop solution containing EDTA and biotinylated phosphatidylinositol-3,4,5-trisphosphate. Finally, detection buffer is added, which contains europium-labelled anti-GST monoclonal antibody, GST-tagged GRP1 PH domain and streptavidin-allophycocyanin. The plate is then read in timeresolved fluorescence mode and the homogenous time-resolved fluorescence (HTRF) signal is determined according to the formula HTRF=10000×(Em665 nm/Em620 nm).
(§7) The kinase assays described herein were performed at Millipore UK Ltd, Dundee Technology Park, Dundee DD2 1SW, UK.

[4] = target: T2, PI3K (p120γ) (h) (Homo sapiens, UniProt P48736); experiment: PI3K p120γ (h) non-radioactive HTRF assay; type: biochemical
T2 construct: purchased Millipore UK Ltd (assay service)
T2 sequence (P48736 whole entry): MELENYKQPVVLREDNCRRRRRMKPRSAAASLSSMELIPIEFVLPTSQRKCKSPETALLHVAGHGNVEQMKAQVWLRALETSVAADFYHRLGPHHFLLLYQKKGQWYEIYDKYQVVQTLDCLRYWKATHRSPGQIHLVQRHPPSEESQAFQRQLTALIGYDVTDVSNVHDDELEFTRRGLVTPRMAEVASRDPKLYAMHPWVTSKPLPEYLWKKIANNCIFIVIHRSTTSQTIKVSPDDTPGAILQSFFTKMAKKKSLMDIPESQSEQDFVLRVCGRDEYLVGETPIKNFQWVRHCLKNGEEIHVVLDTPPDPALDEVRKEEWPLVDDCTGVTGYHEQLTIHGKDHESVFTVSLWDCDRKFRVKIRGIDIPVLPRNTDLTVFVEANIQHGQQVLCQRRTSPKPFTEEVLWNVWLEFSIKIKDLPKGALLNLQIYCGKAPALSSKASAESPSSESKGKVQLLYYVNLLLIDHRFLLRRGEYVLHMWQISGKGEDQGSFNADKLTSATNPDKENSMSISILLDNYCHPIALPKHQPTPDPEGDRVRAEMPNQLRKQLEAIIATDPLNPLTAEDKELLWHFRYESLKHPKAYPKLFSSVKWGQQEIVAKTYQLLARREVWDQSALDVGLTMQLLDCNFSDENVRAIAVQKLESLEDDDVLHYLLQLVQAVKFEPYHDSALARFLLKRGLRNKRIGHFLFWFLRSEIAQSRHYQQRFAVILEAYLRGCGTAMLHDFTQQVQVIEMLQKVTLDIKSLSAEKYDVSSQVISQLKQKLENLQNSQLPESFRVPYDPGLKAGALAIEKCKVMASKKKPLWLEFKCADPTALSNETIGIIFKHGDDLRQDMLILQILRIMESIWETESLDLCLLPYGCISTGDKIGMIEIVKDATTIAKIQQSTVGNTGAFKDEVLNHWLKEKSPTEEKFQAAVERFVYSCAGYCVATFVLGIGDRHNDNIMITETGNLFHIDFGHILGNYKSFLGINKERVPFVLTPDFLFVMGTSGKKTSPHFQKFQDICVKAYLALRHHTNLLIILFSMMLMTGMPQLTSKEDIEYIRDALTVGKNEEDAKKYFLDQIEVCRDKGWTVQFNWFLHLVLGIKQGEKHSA
Description: as §6, with “(p120γ)” for “(p110β/p85α)”
as §7

[5] = Pharmacokinetic profiles in mice after intravenous and oral administration; type: in vivo; conditions: Mouse; for F: oral dose generally 5 or 10 mg/kg; for AUC(0-t) / half-life / Vd: plasma; for Vd: read-out: Vss
Description: The compounds disclosed herein are assessed in pharmacokinetic studies in mice, rats, dogs or monkeys. The compounds are administered as a water solution, 2% HPMC+1% TWEEN® 80 in water solution, 5% DMSO+5% solutol in saline, 4% MC suspension or capsule. For the intravenous administration, the animals are generally given at 1 or 2 mg/kg dose. For the oral (p.o.) dosing, mice and rats are generally given 5 or 10 mg/kg dose, and dogs and monkeys are generally given 10 mg/kg dose. The blood samples (0.3 mL) are drawn at 0.25, 0.5, 1.0, 2.0, 3.0, 4.0, 6.0, 8.0, 12 and 24 h time points or 0.083, 0.25, 0.5, 1.0, 2.0, 4.0, 6.0, 8.0 and 24 h time points and centrifuged at 3,000 or 4000 rpm for 2 to 10 min. The plasma solutions are collected, stored at −20° C. or −70° C. until analyzed by LC/MS/MS as described above.

| half-life at 5 μM [1] | CLint scaled at 5 μM [1] | half-life at 5 μM [2] | CLint scaled at 5 μM [2] | IC50 [3] | IC50 [4] | F ([5]; iv dose 1 mg/kg) | AUC(0-t) ([5]; iv dosing 1 mg/kg) | half-life ([5]; iv dosing 1 mg/kg) | Human T1/2 [1] | Rat T1/2 [2] | F ([5]; iv dose 2 mg/kg) | Cl/F ([5]; iv dosing 2 mg/kg) | AUC(0-t) ([5]; iv dosing 2 mg/kg) | half-life ([5]; iv dosing 2 mg/kg) | Vd ([5]; iv dosing 2 mg/kg) | SMILES |
| --- | --- | --- | --- | --- | --- | --- | --- | --- | --- | --- | --- | --- | --- | --- | --- | --- |
| 5.22 h | 5.55 mL/min/kg | 0.894 h | 46.3 mL/min/kg | 66 nM | 5 nM |  |  |  |  |  |  |  |  |  |  | COc1ncc(-c2ccc3ncc(C#CC(C)O)n3c2)cc1NS(=O)(=O)c1ccc(F)cc1F (centres unmarked) [Ex. 16, 2,4-difluoro N (5 (3 (3 hydroxybut-1-yn-1-yl)imidazo[1,2-a]pyridin-6-yl)-2-methoxypyridin-3-yl)benzenesulfonamide] |
| 8.39 h | 3.45 mL/min/kg | 2.01 h | 20.6 mL/min/kg | 27 nM | 37 nM | 116.9% | 20000 ng·h/mL | 2.83 h |  |  |  |  |  |  |  | COc1ncc(-c2ccc3ncc(C#CCO)n3c2)cc1NS(=O)(=O)c1ccc(F)cc1F [Ex. 15, 2,4-difluoro-N-(5-(3-(3-hydroxyprop-1-yn-1-yl)imidazo[1,2-a]pyridin-6-yl)-2-methoxypyridin-3-yl)benzenesulfonamide] |
|  |  |  |  | 38 nM |  |  |  |  | ∞ | ∞ | 118.7% | 6.17 mL/min/kg | 5330 ng·h/mL | 4.02 h | 0.57 L/kg | COc1ncc(-c2ccc3ncc(C#CCO)n3n2)cc1NS(=O)(=O)c1ccc(F)cc1F [Ex. 9, 2,4-difluoro-N-(5-(3-(3-hydroxyprop-1-yn-1-yl)imidazo[1,2-b]pyridazin-6-yl)-2-methoxypyridin-3-yl)benzenesulfonamide] |
|  |  |  |  | 26 nM | 4 nM |  |  |  | ∞ | ∞ | 72.6% | 0.33 mL/min/kg | 96100 ng·h/mL | 5.25 h | 0.14 L/kg | COc1ncc(-c2ccc3ncc(C#N)n3n2)cc1NS(=O)(=O)c1ccc(F)cc1F [Ex. 24, N-(5-(3-cyanoimidazo[1,2-b]pyridazin-6-yl)-2-methoxypyridin-3-yl)-2,4-difluorobenzenesulfonamide] |
